Data on 1 substance can be found in article PMC7048932, “Examining sterically demanding lysine analogs for histone lysine methyltransferase catalysis” (Scientific Reports, 2020).

The assay addresses T1, G9a (Homo sapiens, UniProt Q96KQ7).
T1 construct: His6 (N); made in house; host or cells: E. coli BL21 (DE3)pLysS-rosetta
T1 sequence (Q96KQ7 1-1210): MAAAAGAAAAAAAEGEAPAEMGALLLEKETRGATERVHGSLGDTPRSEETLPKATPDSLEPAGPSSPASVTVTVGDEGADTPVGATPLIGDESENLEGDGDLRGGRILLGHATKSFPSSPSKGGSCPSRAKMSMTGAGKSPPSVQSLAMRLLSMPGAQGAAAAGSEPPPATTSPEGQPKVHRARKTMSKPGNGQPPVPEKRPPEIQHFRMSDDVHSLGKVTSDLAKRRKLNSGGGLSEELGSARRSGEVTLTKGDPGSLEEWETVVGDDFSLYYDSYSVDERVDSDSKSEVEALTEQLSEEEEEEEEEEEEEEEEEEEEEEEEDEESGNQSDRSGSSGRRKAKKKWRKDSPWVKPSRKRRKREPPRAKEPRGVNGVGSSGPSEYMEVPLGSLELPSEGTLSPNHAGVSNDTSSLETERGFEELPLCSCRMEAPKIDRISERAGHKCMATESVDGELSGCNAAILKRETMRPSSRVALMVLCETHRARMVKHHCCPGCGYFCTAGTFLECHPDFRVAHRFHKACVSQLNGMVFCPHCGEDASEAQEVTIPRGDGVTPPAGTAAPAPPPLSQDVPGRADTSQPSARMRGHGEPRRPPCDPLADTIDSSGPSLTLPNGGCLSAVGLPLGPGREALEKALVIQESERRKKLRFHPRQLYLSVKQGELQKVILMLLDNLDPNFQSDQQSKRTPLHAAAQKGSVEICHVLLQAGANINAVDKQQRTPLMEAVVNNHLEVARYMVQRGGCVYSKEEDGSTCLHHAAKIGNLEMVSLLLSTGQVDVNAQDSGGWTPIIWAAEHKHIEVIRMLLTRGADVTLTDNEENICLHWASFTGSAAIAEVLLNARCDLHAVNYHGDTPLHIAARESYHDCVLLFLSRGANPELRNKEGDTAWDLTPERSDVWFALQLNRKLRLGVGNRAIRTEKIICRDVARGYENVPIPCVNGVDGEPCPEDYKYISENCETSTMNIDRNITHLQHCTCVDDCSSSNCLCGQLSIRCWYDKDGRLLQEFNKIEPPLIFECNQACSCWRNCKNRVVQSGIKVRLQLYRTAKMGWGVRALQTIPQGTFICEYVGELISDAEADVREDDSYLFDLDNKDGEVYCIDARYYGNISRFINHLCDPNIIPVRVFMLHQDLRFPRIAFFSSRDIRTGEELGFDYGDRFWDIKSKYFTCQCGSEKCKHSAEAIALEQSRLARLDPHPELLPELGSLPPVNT
Description: MALDI-TOF MS methylation assay of H3K9 peptides with G9a. Type of assay: biochemical. To be noted: peptide 100 µM, G9a 2 µM, SAM 500 µM, 1 h, 37 °C. How it is done:
MALDI-MS methyltransferases activity experiments were performed using a Bruker instrument in the reflectron positive mode. For regular methyltransferase standard conditions experiment which carried out in 30 µL total volume, the mixture contains peptide (100 µM), SAM (200 µM), SETD8 or SETD7 (2 µM), in assay buffer 50 mM Tris at optimal pH 8.0. In case of G9a and GLP, similar conditions were used, except (500 µM) of SAM was added to the reaction mixture. Samples were incubated in an Eppendorf vial 1.5 mL using thermomixer for 1 h at 37 °C. A 5 µL aliquot of the solution was mixed with 5 µL of MeOH, after which 5 µL of this mixture was mixed with 5 µL of α-cyano-4-hydroxycinamic acid matrix (CHCA, 5 mg/mL in 125:125 µL acetonitrile/water). The spots were placed on a stainless steel MALDI plate (MS 96 target ground steel BC of Bruker, Germany). The mass corresponding to one monomethylation observed as +14 Da, dimethylation observed as +28 Da and trimethylation observed as +42 Da. The enzymatic activity was determined by taking the peak areas of each methylation state, including all isotopes and adducts, and was annotated using FlexAnalysis software (Bruker Daltonics, Germany). […] Methylated peptide substrates were repeated five times and the unmethylated substrates were triplicated. Sequences of the examined peptides are given in (Supplementary Table 1).

As to ARTKQTAR(Kba9)STGGKA [H3Kba9], the “G9a-catalyzed methylation, result in words” value is reported as “traces detected”. Besides, the “G9a-catalyzed methylation, result in words” value (listed as H3K ba9) is recorded as “trace of monomethylation”.
